According to patent US20230265104A1, “NOVEL HETEROCYCLIC COMPOUNDS” (PRISM BIOLAB CO., LTD., priority 2020, published 2023):

System: PANC-1 (human pancreatic cancer-derived cell line)
Assay: MTS assay on Panc-1 (human pancreas carcinoma cell line)
Format: cell-based
Details: 144 h; for inhibition at 0.3125 µM: read-out: Growth inhibition (%) 0.3125 μM; for IC50: PANC-1, MTS method, cell survival 6 days after exposure, 4-parameter logistic fit; for inhibition at 10 µM: read-out: Growth inhibition (%) 10 μM; for inhibition at 2.5 µM: read-out: Growth inhibition (%) 2.5 μM; for inhibition at 0.15625 µM: read-out: Growth inhibition (%) 0.15625 μM
Method in brief: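 PANC-1 cells in D-MEM + 10% FBS at 37 °C, 5% CO2 exposed to 2-fold serial DMSO dilutions of compound for 6 days. Survival read by MTS (492 minus 630 nm, blank-corrected) relative to DMSO control as 100%; mean of 3 runs, 4-parameter logistic fit.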

SMILES | IC50 [nM] | inhibition at 10 µM (PANC-1, MTS, 6 days) [%] | further results
C#Cc1sc(/C=C/C(=O)N2O[C@H](CC(C)C)C(=O)N3[C@@H]2CN(C2CCN(C)CC2)C(=O)[C@@H]3CC(C)(C)C)nc1C#CCCCO [ID-103, (3R,6S,9aS)-1-((E)-3-(5-ethynyl-4-(5-hydroxypent-1-yn-1-yl)thiazol-2-yl)acryloyl)-3-isobutyl-8-(1-methylpiperidin-4-yl)-6-neopentyltetrahydropyrazino[2,1-c][1,2,4]oxadiazine-4,7 (3H, 6H)-dione] | – | – | inhibition at 0.3125 µM (PANC-1, MTS, 6 days): 99.6%
CC(C)C[C@@H]1C(=O)N2[C@H](CN(C3CCN(C)CC3)C(=O)[C@@H]2Cc2ccccc2)N1C(=O)/C=C/c1nc2ccccc2s1 [ID-86, (2R,5S,8aR)-1-((E)-3-(benzo[d]thiazol-2-yl)acryloyl)-5-benzyl-2-isobutyl-7-(1-methylpiperidin-4-yl)tetrahydroimidazo[1,2-a]pyrazine-3,6(2H,5H)-dione] | – | – | inhibition at 1.25 µM (PANC-1, MTS, 6 days, 1.25 μM, read-out: Growth inhibition (%) 1.25 μM): 50%
CC(C)C[C@H]1ON(C(=O)/C=C/c2ncco2)[C@H]2CN(C3CCN(C)CC3)C(=O)[C@H](CC(C)C)N2C1=O [ID-53, (3R,6S,9aS)-3,6-diisobutyl-8-(1-methylpiperidin-4-yl)-1-((E)-3-(oxazol-2-yl)acryloyl)tetrahydropyrazino[2,1-c] [1,2,4]oxadiazine-4,7(3H,6H)-dione] | 1200 | 100 | –
CC(C)C[C@H]1ON(C(=O)/C=C/[C@@H]2CCCN2C)[C@H]2CN(CCC(N)=O)C(=O)[C@H](CC(C)C)N2C1=O [ID-42, 3-((3R,6S,9aS)-3,6-diisobutyl-1-((E)-3-((S)-1-methylpyrrolidin-2-yl)acryloyl)-4,7-dioxohexahydropyrazino[2,1-c][1,2,4]oxadiazin-8(1H)-yl)propanamide] | – | 65.3 | –
CC(C)C[C@H]1ON(C(=O)/C=C/c2nc(C#CCCCO)cs2)[C@H]2CN(C3CCN(C(C)C)CC3)C(=O)[C@H](CC(C)(C)C)N2C1=O [ID-10, (3R,6S,9aS)-1-((E)-3-(4-(5-hydroxypent-1-yn-1-yl)thiazol-2-yl)acryloyl)-3-isobutyl-8-(1-isopropylpiperidin-4-yl)-6-neopentyltetrahydropyrazino[2,1-c][1,2,4]oxadiazine-4,7(3H,6H)-dione] | 48 | – | –
CC(C)C[C@H]1ON(C(=O)/C=C/c2ccccn2)[C@H]2CN(C3CCCN(C)C3)C(=O)[C@H](CC(C)C)N2C1=O (stereo partly drawn) [ID-65, (3R,6S,9aS)-3,6-diisobutyl-8-(1-methylpiperidin-3-yl)-1-((E)-3-(pyridin-2-yl)acryloyl)tetrahydropyrazino[2,1-c][1,2,4]oxadiazine-4,7(3H,6H)-dione] | 4700 | 96.5 | –
COc1ccc(/C=C/C(=O)N2O[C@H](CC(C)C)C(=O)N3[C@@H]2CN(C2CCN(C)CC2)C(=O)[C@@H]3CC(C)C)nc1 [ID-72, (3R,6S,9aS)-3,6-diisobutyl-1-((E)-3-(5-methoxypyridin-2-yl)acryloyl)-8-(1-methylpiperidin-4-yl)tetrahydropyrazino[2,1-c][1,2,4]oxadiazine-4,7(3H,6H)-dione] | – | – | inhibition at 2.5 µM (PANC-1, MTS, 6 days): 37%
CC(C)C[C@H]1ON(C(=O)/C=C/c2nc(C#CC3(N)CC3)cs2)[C@H]2CN([C@H]3CCN(CCCCO)C3)C(=O)[C@H](CC(C)(C)C)N2C1=O [ID-87, (3R, 6S, 9aS)-1-((E)-3-(4-((1-aminocyclopropyl)ethynyl)thiazol-2-yl)acryloyl)-8-((S)-1-(4-hydroxybutyl)pyrrolidin-3-yl)-3-isobutyl-6-neopentyltetrahydropyrazino[2,1-c][1,2,4]oxadiazine-4,7(3H,6H)-dione] | – | – | inhibition at 0.3125 µM (PANC-1, MTS, 6 days): 54.5%
CC(C)C[C@H]1ON(C(=O)/C=C/c2ccccn2)[C@H]2CN(C3CCN(Cc4ncccn4)CC3)C(=O)[C@H](CC(C)C)N2C1=O [ID-36, (3R,6S,9aS)-3,6-diisobutyl-1-((E)-3-(pyridin-2-yl)acryloyl)-8-(1-(pyrimidin-2-ylmethyl)piperidin-4-yl)tetrahydropyrazino[2,1-c][1,2,4]oxadiazine-4,7(3H,6H)-dione] | – | 76 | –
CC(C)C[C@H]1ON(C(=O)/C=C/c2nc3cc(O)ccc3s2)[C@H]2CN(C3CCN(C(C)C)CC3)C(=O)[C@H](CC(C)(C)C)N2C1=O [ID-98, (3R,6S,9aS)-1-((E)-3-(5-hydroxybenzo[d]thiazol-2-yl)acryloyl)-3-isobutyl-8-(1-isopropylpiperidin-4-yl)-6-neopentyltetrahydropyrazino[2,1-c][1,2,4]oxadiazine-4,7(3H,6H)-dione] | – | – | inhibition at 0.15625 µM (PANC-1, MTS, 6 days): 61.7%
CC(C)C[C@H]1ON(C(=O)/C=C/c2nc3cc(O)ccc3s2)[C@H]2CN([C@@H]3CCN(CCCCO)C3)C(=O)[C@H](CC(C)(C)C)N2C1=O [ID-12, (3R,6S,9aS)-1-((E)-3-(5-hydroxybenzo[d]thiazol-2-yl)acryloyl)-8-((R)-1-(4-hydroxybutyl)pyrrolidin-3-yl)-3-isobutyl-6-neopentyltetrahydropyrazino[2,1-c][1,2,4]oxadiazine-4,7(3H,6H)-dione] | 60 | – | –
CC(C)C[C@H]1ON(C(=O)/C=C/c2ccc(C(F)(F)F)cn2)[C@H]2CN(C3CCN(C)CC3)C(=O)[C@H](CC(C)C)N2C1=O [ID-71, (3R,6S,9aS)-3,6-diisobutyl-8-(1-methylpiperidin-4-yl)-1-((E)-3-(5-(trifluoromethyl)pyridin-2-yl)acryloyl)tetrahydropyrazino[2,1-c][1,2,4]oxadiazine-4,7(3H,6H)-dione] | – | – | inhibition at 2.5 µM (PANC-1, MTS, 6 days): 97.3%
CC(C)C[C@H]1ON(C(=O)/C=C/c2ccccn2)[C@H]2CN(C3CCN(C)CC3)C(=O)[C@H](CC(C)C)N2C1=O [ID-1, (3R, 6S, 9aS)-3,6-diisobutyl-8-(1-methylpiperidin-4-yl)-1-((E)-3-(pyridin-2-yl)acryloyl) tetrahydropyrazino[2,1-c] [1,2,4]oxadiazine-4,7(3H,6H)-dione] | 4100 | – | –
CSc1nccc(/C=C/C(=O)N2O[C@H](CC(C)C)C(=O)N3[C@@H]2CN([C@H]2CCN(CCCCO)C2)C(=O)[C@@H]3CC(C)(C)C)n1 [ID-78, (3R,6S,9aS)-8-((S)-1-(4-hydroxybutyl)pyrrolidin-3-yl)-3-isobutyl-1-((E)-3-(2-(methylthio)pyrimidin-4-yl)acryloyl)-6-neopentyltetrahydropyrazino[2,1-c][1,2,4]oxadiazine-4,7(3H,6H)-dione] | – | – | inhibition at 0.3125 µM (PANC-1, MTS, 6 days): 41.5%
CC(C)C[C@H]1ON(C(=O)/C=C/c2nc3ccccc3s2)[C@H]2CN(C3CCN(CCCO)CC3)C(=O)[C@H](CC(C)(C)C)N2C1=O [ID-79, (3R,6S,9aS)-1-((E)-3-(benzo[d]thiazol-2-yl)acryloyl)-8-(1-(3-hydroxypropyl)piperidin-4-yl)-3-isobutyl-6-neopentyltetrahydropyrazino[2,1-c][1,2,4]oxadiazine-4,7(3H,6H)-dione] | – | – | inhibition at 0.3125 µM (PANC-1, MTS, 6 days): 72.2%
Cc1nc(/C=C/C(=O)N2O[C@H](CC(C)C)C(=O)N3[C@@H]2CN(CCC(N)=O)C(=O)[C@@H]3CC(C)C)sc1C [ID-34, 3-((3R,6S,9aS)-1-((E)-3-(4,5-dimethylthiazol-2-yl)acryloyl)-3,6-diisobutyl-4,7-dioxohexahydropyrazino[2,1-c][1,2,4]oxadiazin-8(1H)-yl)propanamide] | 2600 | 95.5 | –
CC(C)C[C@H]1ON(C(=O)/C=C/c2nc(C#CCCCO)cs2)[C@H]2CN(C3CCN(C4CC4)CC3)C(=O)[C@H](CC(C)(C)C)N2C1=O [ID-102, (3R,6S,9aS)-8-(1-cyclopropylpiperidin-4-yl)-1-((E)-3-(4-(5-hydroxypent-1-yn-1-yl)thiazol-2-yl)acryloyl)-3-isobutyl-6-neopentyltetrahydropyrazino[2,1-c][1,2,4]oxadiazine-4,7(3H,6H)-dione] | – | – | inhibition at 0.15625 µM (PANC-1, MTS, 6 days): 36.9%
CC(C)C[C@H]1ON(C(=O)/C=C/c2nc3ccccc3s2)[C@H]2CN(C3CCN(C)CC3)C(=O)[C@H](CCS(C)(=O)=O)N2C1=O [ID-74, (3R,6S,9aS)-1-((E)-3-(benzo[d]thiazol-2-yl)acryloyl)-3-isobutyl-8-(1-methylpiperidin-4-yl)-6-(2-(methylsulfonyl)ethyl)tetrahydropyrazino[2,1-c][1,2,4]oxadiazine-4,7(3H,6H)-dione] | – | – | inhibition at 0.3125 µM (PANC-1, MTS, 6 days): 38.7%
CC(C)C[C@H]1ON(C(=O)/C=C/c2ccc3cccnc3n2)[C@H]2CN(CCC(N)=O)C(=O)[C@H](CC(C)C)N2C1=O [ID-31, 3-((3R,6S,9aS)-1-((E)-3-(1,8-naphthyridin-2-yl)acryloyl)-3,6-diisobutyl-4,7-dioxohexahydropyrazino[2,1-c][1,2,4]oxadiazin-8(1H)-yl)propanamide] | 2700 | 99.3 | –
